The values below come from patent US10836769B2, “Substituted pyrrolizine compounds and uses thereof” (Gilead Sciences, Inc., priority 2018, dated 2020).

Data set [1] has as its system HBV. Put plainly: HBV DNA Quantification Assay. The data set is classed as cell-based. The method, then: A HepG2 cell line overexpressing the HBV virus attachment receptor sodium-taurocholate cotransporting polypeptide (NTCP) was grown to confluency in DMEM growth medium, Dulbecco's Modified Eagle Medium without sodium pyruvate (Life Technologies, Rockville, Md.) supplemented with 10% FBS (Thermo Scientific, Waltham, Md.), 1% penicillin/streptomycin (Life Technologies, Rockville, Md.) and 2 mM L-glutamine (Life Technologies, Rockville, Md.) in T175 flasks. Cells were infected with HBV AD38 viral particles (Texcell, Frederick, USA) at 4000 genome equivalents per cell. After allowing viral infection to take place for 4 days, the infected cells were harvested from the flasks by trypsinization, washed twice with OptiMEM (Life Technologies, Rockville, Md.) and re-suspended in DMEM containing 2% FBS and 1% DMSO at a density of 0.25E6 cells/ml. Infected cells were seeded on 384 well collagen coated plates (Greiner, Austria) at a density of 20,000 cells/well containing serially diluted compounds of the present disclosure or DMSO (0.5%) in a final volume of 80 μl. The assay plates were incubated for a period of 5 days and the antiviral activity of the test compounds were assayed by detecting the presence of HBV DNA in the culture supernatant using the QuantiGene™ 2.0 nucleic acid quantification kit (Affymetrix, Santa Clara, Calif.).
The culture supernatant was harvested and treated with lysis buffer containing Proteinase K (Affymetrix, Santa Clara, Calif.). The supernatant was incubated with HBV viral DNA specific probes (Affymetrix, Santa Clara, Calif.) for 30 minutes at 55° C. This was followed by addition of 0.2M NaOH for 30 minutes at room temperature to denature the DNA, followed by addition of Neutralization buffer (Affymetrix, Santa Clara, Calif.). The resulting lysed and neutralized supernatant was then added to QuantiGene™ 2.0 384 well plates coated with capture oligonucleotides and incubated overnight at 55° C. The HBV specific probe set consists of Capture Extender oligonucleotides (CE's) and blocking probes. Following the overnight incubation, the wells were incubated for one hour sequentially with a Pre-Amplifier, Amplifier and Labeled probes conjugated to alkaline phosphatase with a wash step between incubations. After the final wash step, the alkaline phosphatase substrate (Luminol APS5) was added and the resulting luminescence signal was read in an EnVision Multilabel Plate Reader (PerkinElmer, Santa Clara, Calif.). The EC50 values were calculated from the fit of the dose-response curves to a four-parameter equation. All EC50 values represent geometric mean values of a minimum of four determinations.

Data set [2] is described as follows: Kinetic Solubility. The class given is physicochemical. Particulars: 0.2 to 100 μM, BD Gentest Solubility Scanner. The method, then:
The 10 mM DMSO stock solution of the test compound is serially diluted into a 96-well “DMSO stock dilution plate”. Then Pipette 2 μL from the DMSO stock dilution plate into the “Sample plate” and dilute with 198 µL of the assay media to generate the final concentrations of the test compound ranging from 0.2 to 100 μM. The “Sample plate” is run on a BD Gentest Solubility Scanner.

[3] abbreviates: Hepatitis B virus, 120 h, HepG2 cell line overexpressing NTCP infected with HBV AD38 viral particles, HBV DNA in culture supernatant after 5 days, geometric mean of a minimum of four determinations, read-out: EC50.
Where [4] appears, read: aqueous buffer, kinetic from dmso stock, pH = 7, read-out: Kinetic Solubility at pH = 7.
Where [5] appears, read: simulated gastric fluid, kinetic from dmso stock, pH = 1, read-out: Kinetic Solubility at pH = 1.
Where [6] appears, read: HepG2 cell line overexpressing NTCP infected with HBV AD38 viral particles, HBV DNA in culture supernatant after 5 days, geometric mean of a minimum of four determinations, read-out: EC50.
[7] abbreviates: pH = 1, read-out: Kinetic Solubility at pH = 1.
[8] abbreviates: pH = 7, read-out: Kinetic Solubility at pH = 7.

The EC50 is the concentration needed to bring the measured effect to its halfway point. Usually kinetic solubility stands for the concentration staying in solution when a stock, usually in DMSO, is diluted into the medium.

Values after ≈ are worked out from the molar mass of the structure shown. Read-outs that look alike come from different tables or passages of the source.

As to `Cc1c(C(=O)Nc2cc(F)c(F)c(F)c2)c2n(c1C(=O)C(=O)NC1(c3nncs3)CC(F)(F)C1)CCC2` [Example 1, 5-(2-((3,3-difluoro-1-(1,3,4-thiadiazol-2-yl)cyclobutyl)amino)-2-oxoacetyl)-6-methyl-N-(3,4,5-trifluorophenyl)-2,3-dihydro-1H-pyrrolizine-7-carboxamide], the EC50 in data set [1] (setting [3]) worked out at 2.5 nM. The kinetic solubility in data set [2] (setting [4]) is 1.7 µM (≈ 0.917 µg/mL); in data set [2] (setting [5]) it was less than 1 µM. Turning to `Cc1c(C(=O)Nc2ccc(F)c(C#N)c2)c2n(c1C(=O)C(=O)NC1(c3nncs3)CC(F)(F)C1)CCC2` [Example 2], the EC50 in data set [1] (setting [3]) was determined as 4.8 nM. Also, the values for the solubility (kinetic) in data set [2] (setting [4]) and in data set [2] (setting [5]) were 7.4 µM (≈ 3.91 µg/mL) and 7.8 µM (≈ 4.12 µg/mL), respectively. Consider `Cc1c(C(=O)Nc2ccc(F)c(F)c2)c2n(c1C(=O)C(=O)NC1(c3nncs3)CC(F)(F)C1)CCC2` [Example 3, 5-(2-((3,3-difluoro-1-(1,3,4-thiadiazol-2-yl)cyclobutyl)amino)-2-oxoacetyl)-N-(3,4-difluorophenyl)-6-methyl-2,3-dihydro-1H-pyrrolizine-7-carboxamide], for which the EC50 in data set [1] (setting [3]) amounted to 2.3 nM. The solubility (kinetic) in data set [2] (setting [4]) was 1.1 µM (≈ 0.574 µg/mL); in data set [2] (setting [5]), 1.5 µM (≈ 0.782 µg/mL). For `Cc1c(C(=O)Nc2cc(F)c(F)c(F)c2)c2n(c1C(=O)C(=O)NC1(c3cn(C)nn3)CC(F)(F)C1)CCC2` [Example 4] the same measures were 7.5 nM, 39.9 µM (≈ 21.4 µg/mL) and 43.3 µM (≈ 23.2 µg/mL). For `Cc1c(C(=O)Nc2ccc(F)c(C#N)c2)c2n(c1C(=O)C(=O)NC1(c3cn(C)nn3)CC(F)(F)C1)CCC2` [Example 5, N-(3-cyano-4-fluorophenyl)-5-(2-((3,3-difluoro-1-(1-methyl-1H-1,2,3-triazol-4-yl)cyclobutyl)amino)-2-oxoacetyl)-6-methyl-2,3-dihydro-1H-pyrrolizine-7-carboxamide] the same measures were 43.6 nM, 20.7 µM (≈ 10.9 µg/mL) and 11.3 µM (≈ 5.94 µg/mL). Take `Cc1c(C(=O)Nc2ccc(F)c(F)c2)c2n(c1C(=O)C(=O)NC1(c3cn(C)nn3)CC(F)(F)C1)CCC2` [Example 6, 5-(2-((3,3-difluoro-1-(1-methyl-1H-1,2,3-triazol-4-yl)cyclobutyl)amino)-2-oxoacetyl)-N-(3,4-difluorophenyl)-6-methyl-2,3-dihydro-1H-pyrrolizine-7-carboxamide]: the EC50 in data set [1] (setting [3]) stood at 14 nM. Besides, the results for the solubility (kinetic) in data set [2] (setting [4]) and in data set [2] (setting [5]) were 44.8 µM (≈ 23.2 µg/mL) and 46.1 µM (≈ 23.9 µg/mL), respectively. Turning to `Cc1c(C(=O)Nc2ccc(F)cc2)c2n(c1C(=O)C(=O)NC1(c3cnnn3C)CC(F)(F)C1)CCC2` [Example 7, 5-(2-((3,3-difluoro-1-(1-methyl-1H-1,2,3-triazol-5-yl)cyclobutyl)amino)-2-oxoacetyl)-N-(4-fluorophenyl)-6-methyl-2,3-dihydro-1H-pyrrolizine-7-carboxamide], in data set [1] (setting [3]), the concentration giving a half-maximal response (EC50) came out at 17.9 nM. On to `Cc1c(C(=O)Nc2ccc(F)cc2)c2n(c1C(=O)C(=O)NC1(c3nncs3)CC(F)(F)C1)CCC2` [Example 8], for which the EC50 in data set [1] (setting [3]) is 4.7 nM. Moreover, the kinetic solubility in data set [2] (setting [4]) was 3.9 µM (≈ 1.96 µg/mL); in data set [2] (setting [5]), 10.5 µM (≈ 5.29 µg/mL).

For the compound `Cc1c(C(=O)Nc2ccc(F)cc2)c2n(c1C(=O)C(=O)NC1(c3cnn(C)n3)CC(F)(F)C1)CCC2` [Example 9, 5-(2-((3,3-difluoro-14(2-methyl-2H-1,2,3-triazol-4-yl)cyclobutyl)amino)-2-oxoacetyl)-N-4(4-fluorophenyl)-6-methyl-2,3-dihydro-1H-pyrrolizine-7-carboxamide], the EC50 in data set [1] (setting [6]) stood at 5.8 nM. In addition, the solubility (kinetic) in data set [2] (setting [7]) is listed as 2.8 µM (≈ 1.4 µg/mL); in data set [2] (setting [8]), 2.3 µM (≈ 1.15 µg/mL). Taken in the same sequence, the figures for `Cc1c(C(=O)Nc2ccc(F)cc2)c2n(c1C(=O)C(=O)NC1(c3cn(C)nn3)CC(F)(F)C1)CCC2` [Example 10] were 33.2 nM, 1.4 µM (≈ 0.701 µg/mL) and 52.8 µM (≈ 26.4 µg/mL).

In turn, `Cc1c(C(=O)Nc2ccc(F)c(F)c2)c2n(c1C(=O)C(=O)NC1(c3cn(C[Si](C)(C)C)nn3)CC1)CCC2` [Example 12] showed an EC50 in data set [1] (Hepatitis B virus, HepG2, 120 h) of 93.6 nM. For `Cc1c(C(=O)Nc2ccc(F)c(F)c2)c2n(c1C(=O)C(=O)N[C@](C)(C(N)=O)C(F)(F)F)CCC2` [Example 47, (R)-5-(2-((3-amino-1,1,1-trifluoro-2-methyl-3-oxopropan-2-yl)amino)-2-oxoacetyl)-N-(3,4-difluorophenyl)-6-methyl-2,3-dihydro-1H-pyrrolizine-7-carboxamide], in data set [1] (setting [3]), the EC50 is 54.1 nM. Still for that read-out and setting: the result for `Cc1c(C(=O)Nc2ccc(F)c(F)c2)c2n(c1C(=O)C(=O)N[C@@](C)(C(N)=O)C(F)(F)F)CCC2` [Example 48, (S)-5-(2-((3-amino-1,1,1-trifluoro-2-methyl-3-oxopropan-2-yl)amino)-2-oxoacetyl)-N-(3,4-difluorophenyl)-6-methyl-2,3-dihydro-1H-pyrrolizine-7-carboxamide] reads 63.9 nM; that for `Cc1c(C(=O)Nc2ccc(F)c(C(F)F)c2)c2n(c1C(=O)C(=O)NC1(c3nncs3)CC(F)(F)C1)CCC2` [Example 49, 5-(2-((3,3-difluoro-1-(1,3,4-thiadiazol-2-yl)cyclobutyl)amino)-2-oxoacetyl)-N-(3-(difluoromethyl)-4-fluorophenyl)-6-methyl-2,3-dihydro-1H-pyrrolizine-7-carboxamide], 3.2 nM. Consider `COCc1cc(NC(=O)c2c(C)c(C(=O)C(=O)NC3(c4nncs4)CC(F)(F)C3)n3c2CCC3)ccc1F` [Example 50], for which the EC50 in data set [1] (setting [3]) worked out at 33.4 nM. For the compound `COCc1cc(NC(=O)c2c(C)c(C(=O)C(=O)NC3(c4c[nH]nn4)CC(F)(F)C3)n3c2CCC3)ccc1F` [Example 51], in data set [1] (setting [3]), the EC50 was found to be 45 nM. Same read-out and setting: as for `O=C(NC1(c2nncs2)CC1)C(=O)c1c(Cl)c(C(=O)Nc2ccc(F)c(F)c2)c2n1CCC2` [Example 52, 5-(2-((1-(1,3,4-thiadiazol-2-yl)cyclopropyl)amino)-2-oxoacetyl)-6-chloro-N-(3,4-difluorophenyl)-2,3-dihydro-1H-pyrrolizine-7-carboxamide], the figure is 11 nM; as for `O=C(NC1(c2c[nH]nn2)CC1)C(=O)c1c(Cl)c(C(=O)Nc2ccc(F)c(F)c2)c2n1CCC2` [Example 53, 5-(2-((1-(1H-1,2,3-triazol-4-yl)cyclopropyl)amino)-2-oxoacetyl)-6-chloro-N-(3,4-difluorophenyl)-2,3-dihydro-1H-pyrrolizine-7-carboxamide], 6.9 nM; as for `O=C(NC1(c2c[nH]nn2)CC(F)(F)C1)C(=O)c1c(Cl)c(C(=O)Nc2ccc(F)c(F)c2)c2n1CCC2` [Example 54, 6-chloro-5-(2-((3,3-difluoro-1-(1H-1,2,3-triazol-4-yl)cyclobutyl)amino)-2-oxoacetyl)-N-(3,4-difluorophenyl)-2,3-dihydro-1H-pyrrolizine-7-carboxamide], 1.6 nM. Same read-out and setting: the result for `O=C(NC1(c2c[nH]nn2)CC(F)(F)C1)C(=O)c1c(Cl)c(C(=O)Nc2ccc(F)c(C(F)F)c2)c2n1CCC2` [Example 55, 6-chloro-5-(2-((3,3-difluoro-1-(1H-1,2,3-triazol-4-yl)cyclobutyl)amino)-2-oxoacetyl)-N-(3-(difluoromethyl)-4-fluorophenyl)-2,3-dihydro-1H-pyrrolizine-7-carboxamide] reads 3 nM; that for `O=C(NC1(c2c[nH]nn2)CC1)C(=O)c1c(Cl)c(C(=O)Nc2ccc(F)c(C(F)F)c2)c2n1CCC2` [Example 56], 30.2 nM.
